Measurements from patent publication US20250340885A1, “COMPOSITIONS AND METHODS FOR MODULATING CONDITIONS ASSOCIATED WITH ALTERED ATP8B1 FUNCTION” (CLEVELAND STATE UNIVERSITY, priority 2024, published 2025).
Counter-ions that a name gives are not always drawn. One block for each molecule: values may come before it.

How the values were obtained:
[1] = target: T1, GsdmD (Homo sapiens, UniProt P57764); conditions: cited from earlier work
T1 sequence (P57764 1-484): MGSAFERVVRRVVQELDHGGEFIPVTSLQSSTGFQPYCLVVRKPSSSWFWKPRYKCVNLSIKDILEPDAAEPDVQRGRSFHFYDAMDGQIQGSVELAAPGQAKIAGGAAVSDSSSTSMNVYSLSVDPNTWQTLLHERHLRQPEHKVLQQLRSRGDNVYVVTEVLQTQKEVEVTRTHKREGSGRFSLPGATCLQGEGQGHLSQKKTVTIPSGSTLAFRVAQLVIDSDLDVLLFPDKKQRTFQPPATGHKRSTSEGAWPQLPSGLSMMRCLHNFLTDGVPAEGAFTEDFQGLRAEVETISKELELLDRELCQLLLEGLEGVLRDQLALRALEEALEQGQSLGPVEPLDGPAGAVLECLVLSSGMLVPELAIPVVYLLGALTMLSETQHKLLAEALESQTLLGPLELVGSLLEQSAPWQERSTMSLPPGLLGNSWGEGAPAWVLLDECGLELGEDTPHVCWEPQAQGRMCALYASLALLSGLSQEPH

[2] = target: T2, human ATP8B1 (Homo sapiens, UniProt O43520); assay: Phospholipid-stimulated ATPase activity of full-length ATP8B1; type: biochemical
T2 sequence (O43520 1-1251): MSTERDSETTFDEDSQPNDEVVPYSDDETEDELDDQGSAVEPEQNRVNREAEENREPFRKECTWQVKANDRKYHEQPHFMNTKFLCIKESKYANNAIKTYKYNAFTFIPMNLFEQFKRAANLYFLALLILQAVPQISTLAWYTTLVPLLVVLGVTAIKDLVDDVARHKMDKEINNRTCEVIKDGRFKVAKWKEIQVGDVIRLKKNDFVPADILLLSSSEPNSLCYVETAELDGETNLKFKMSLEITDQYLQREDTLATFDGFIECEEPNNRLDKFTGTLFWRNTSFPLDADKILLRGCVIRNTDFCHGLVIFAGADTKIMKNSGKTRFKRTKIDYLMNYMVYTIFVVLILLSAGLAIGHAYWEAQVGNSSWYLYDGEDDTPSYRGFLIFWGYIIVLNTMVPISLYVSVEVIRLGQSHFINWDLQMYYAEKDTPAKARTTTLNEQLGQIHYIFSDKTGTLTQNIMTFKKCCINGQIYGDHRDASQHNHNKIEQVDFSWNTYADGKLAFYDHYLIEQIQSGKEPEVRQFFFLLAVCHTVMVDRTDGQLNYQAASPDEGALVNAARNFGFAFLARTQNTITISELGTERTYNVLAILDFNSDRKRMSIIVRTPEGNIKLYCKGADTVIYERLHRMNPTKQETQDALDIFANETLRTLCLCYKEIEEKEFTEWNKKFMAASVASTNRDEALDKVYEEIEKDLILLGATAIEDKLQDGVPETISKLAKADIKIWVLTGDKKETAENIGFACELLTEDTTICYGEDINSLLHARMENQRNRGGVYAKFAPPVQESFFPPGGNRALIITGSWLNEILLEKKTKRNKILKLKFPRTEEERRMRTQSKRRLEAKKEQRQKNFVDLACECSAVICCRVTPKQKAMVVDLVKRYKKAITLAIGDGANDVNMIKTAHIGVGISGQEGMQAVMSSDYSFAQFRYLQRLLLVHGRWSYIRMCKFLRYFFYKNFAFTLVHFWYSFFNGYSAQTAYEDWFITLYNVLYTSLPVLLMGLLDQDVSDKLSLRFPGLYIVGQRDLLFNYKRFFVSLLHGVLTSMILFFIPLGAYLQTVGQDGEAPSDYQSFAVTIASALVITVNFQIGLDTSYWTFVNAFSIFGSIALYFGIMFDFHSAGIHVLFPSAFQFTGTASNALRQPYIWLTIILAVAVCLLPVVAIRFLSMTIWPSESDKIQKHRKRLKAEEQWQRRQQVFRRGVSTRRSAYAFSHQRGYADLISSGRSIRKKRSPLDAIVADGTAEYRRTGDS
Description: FIG. 8E is a bar graph showing ATPase activity of ATP8B1 in presence of various lipids (300 µM).
FIG. 8F is a graph showing phospholipid concentration-dependent ATPase activity of ATP8B1. Graph representing data points of three independent experiments, values are mean±SD and fitted by a non-linear dose-dependent curve.
ATP8B1 deletion may affect PIP2 translocation due to changes in membrane properties or by indirectly influencing the activity of other proteins involved in lipid trafficking. To determine if ATP8B1 can directly flip PIP2, a cell-free system was reconstituted. The GST-tagged human ATP8B1 protein was cloned in a baculovirus, followed by transduction of insect Sf9 cells, and expression was confirmed by western blot using anti-GST antibody.
(§1) Next, we utilized reconstituted ATP8B1-proteoliposomes with NBD-labeled phospholipids and sodium dithionite quenching assay to measure phospholipid flip (FIG. 8G), as described before. A marked decrease in the fluorescence intensity of NBD-PIP2 was observed following dithionite quenching of ATP8B1 containing proteoliposomes vs. control liposomes, with ˜12% NBD-PIP2 flip in 5 min, ˜22% NBD-PIP2 flip in 30 min, and ˜27% NBD-PIP2 flipped in 60 min (FIG. 8H, 8I).

[3] = target: T3, ATP8B1 proteoliposomes (Homo sapiens, UniProt O43520); assay: NBD-phospholipid flip in ATP8B1 proteoliposomes, sodium dithionite quenching assay; type: biochemical; conditions: proteoliposomes vs. empty liposomes
T3 construct: The ATPase activity of full-length ATP8B1 was determined in the presence of various phospholipids; GST; made in house; host or cells: Sf9 insect cells (baculovirus)
T3 sequence (O43520 1-1251): T2 sequence (O43520 1-1251)
Description: FIG. 8G is a schematic diagram for PIP2 flip assay in ATP8B1 proteoliposomes vs. empty liposomes.
FIG. 8H is a graph showing sodium dithionite quenching of NBD-PIP2 on the outer side of the proteoliposomes vs. empty liposomes over 10 min, Triton-X-100 was used to quench all the remaining NBD-PIP2.
FIG. 8I is a graph showing the percentage PIP2 flipped over time in proteoliposomes vs. empty liposomes±sodium dithionite, ±Triton-X-100, data are from 3 independent experiments, values are mean±SD, **** show p<0.0001 by t-test.
FIG. 8J is a graph showing sodium dithionite quenching of NBD-PE on the outer side of the proteoliposomes vs. empty liposomes over 10 min, Triton-X-100 was used to quench the remaining inner leaflet NBD-PE.
FIG. 8K is a bar graph showing the percentage PE flip over time in proteoliposomes vs. empty liposomes±Sodium dithionite, ±Triton-X-100. […]
as §1

[4] = test system: HepG2 cells (WT or ATP8b1−/−); assay: Confocal-microscopy-based NBD-phospholipid flip assay with BSA back-exchange; type: cell-based, human; conditions: after BSA wash, up to 60 min
Description: (§2) FIG. 8A is an image of WT or ATP8b1^−/− HepG2 cells pre-incubated with phospholipase inhibitors at 20° C. were supplemented with NBD-PIP2 followed by incubation for up to 60 min to allow lipid internalization. Cells were subjected to back-exchange with BSA, followed by TBSS wash, and visualization by confocal laser scanning microscopy. FIRE look-up table (ImageJ) was used to highlight intensity variations in PIP2 flip. Images are representative of three independent experiments. Scale bar: 20 μm.
as §2, with “8B” for “8A”, “NBD-PE” for “NBD-PIP2”
FIG. 8C is a graph showing quantification of flipped NBD-PIP2 in WT and ATP8b1^−/− HePG2 cells (N=25 cells, values are mean±SD; **** show p<0.0001 by t-test.
FIG. 8D is a graph showing quantification of flipped NBD-PE in WT and ATP8b1^−/− HePG2 cells (N=25 cells, values are mean±SD; **** show p<0.0001 by t-test. […]

Molecule: COC(=O)/C=C/C(=O)OC [dimethyl fumarate]
effect on GsdmD [1]: promotes succination of GsdmD

Molecule: CCCCCCCC/C=C\CCCCCCCC(=O)OC[C@H](COP(=O)(O)O[C@@H]1[C@H](O)[C@H](O)[C@@H](OP(=O)(O)O)[C@H](OP(=O)(O)O)[C@H]1O)OC(=O)CCCCCCC/C=C\CCCCCCCC [PIP2, phosphatidylinositol-4,5-bisphosphate]
ATPase activity of full-length ATP8B1 ([2]; 300 μM lipid): notable increase in ATPase activity

NBD-lipid flip [3]: No significant changes
Molecule: NBD-PE
flip of NBD-lipid in ATP8B1−/− vs. WT cells [4]: no differences

EC50 of stimulated activity of ATP8B1 relative to PIP2 ([2]; higher than PIP2): 1.75 fold
Molecule: phosphatidylcholine [PC]
